The text below walks through data of US9670193B2 (Novartis AG, priority 2011, dated 2017).

Where only a bound is given, the exact number is not on record here.

What all share (format): biochemical
The target in test [1] is T1, Human recombinant HDAC4 (Homo sapiens (Human), UniProt P56524). The test is described as follows: Earlier version of HDAC4 assay. The conditions noted are these: 10 μM substrate, test concentrations 0.003 μM to 100 μM. Here is the method:
Description of Earlier Version of HDAC4 Assay
Human recombinant HDAC4 was expressed in full length form (aa 2-1084) in Sf9 insect cells (obtained from ATCC) using baculovirus generated with Bac-to-Bac system (Invitrogen). Test compounds were serially diluted to reach final test concentrations from 0.003 μM to 100 μM. HDAC4 and test compounds were incubated in 25 mM Tris buffer pH 8.0 containing 137 mM NaCl, 2.7 mM KCl, 1 mM MgCl2 and 0.05% (w/v) bovine serum albumine for 2 hours at room temperature in presence of 10 μM of acetyl-Gly-Ala-Lys(ε-trifluoroacetyl)-AMC (AMC=7-amino-4-methyl coumarin) in a final volume of 200 μl. Control wells with HDAC4 only (positive control) and without HDAC4 (negative control) were included on the microplate. Bovine trypsin (10 μl of a 0.4 mg/ml solution) was added and the plate incubated for additional 15 minutes at room temperature. The plate was placed in a fluorescence microplate reader, and read at an excitation wavelength of 360 nm and an emission wavelength of 450 nm with a cut-off filter of 435 nm. Fluorescence values for all wells containing HDAC4 (positive control and wells with test compound) were corrected by subtracting negative control fluorescence values, and IC50 values were calculated by fitting the dose-response curves to a 4-parameter logistic function.

The target of test [2] is Human recombinant full length HDAC6 (Homo sapiens (Human), UniProt Q9UBN7). The test is described as follows: HDAC6 assay (Test 3), acetyl-Gly-Ala-Lys(acetyl)-AMC substrate. As to conditions: 5 μM substrate, 2 hours at room temperature. The method, then:
(§1) Human recombinant HDAC4 was expressed in full length form (aa 2-1084) in Sf9 insect cells (obtained from ATCC) using baculovirus generated with Bac-to-Bac system (Invitrogen). Test compounds were serially diluted to reach final test concentrations from 0.000128 μM to 10 μM. HDAC4 and test compounds were incubated in 25 mM Tris buffer pH 8.0 containing 137 mM NaCl, 2.7 mM KCl, 1 mM MgCl2, 0.05% (w/v) bovine serum albumine and 0.005% (v/v) Triton-X-100 for 2 hours at room temperature in presence of 5 μM of acetyl-Gly-Ala-Lys(ε-trifluoroacetyl)-AMC (AMC=7-amino-4-methyl coumarin) in a final volume of 9 μl. Control wells with HDAC4 only (positive control) and without HDAC4 (negative control) were included on the microplate. Bovine trypsin (4.5 μl of a 300 nM solution) was added and the plate incubated for additional 15 minutes at room temperature. The plate was placed in a fluorescence microplate reader, and read at an excitation wavelength of 360 nm and an emission wavelength of 450 nm with a 10 nm bandpath. Fluorescence values for all wells containing HDAC4 (positive control and wells with test compound) were corrected by subtracting negative control fluorescence values, and IC50 values were calculated by fitting the dose-response curves to a 4-parameter logistic function.
Test 3: HDAC6 Assay Description
A similar assay procedure as described in Test 1 was used for HDAC6. Human recombinant full length HDAC6 expressed in a baculovirus expression system was purchased from BPS BioSciences (San Diego, Calif., U.S.A.). The substrate used in the […] assay was 5 μM of acetyl-Gly-Ala-Lys (acetyl)-AMC.

The target of test [3] is T1, Human recombinant HDAC4. As to the kind of experiment: HDAC4 assay (Test 1), fluorescence, acetyl-Gly-Ala-Lys(ε-trifluoroacetyl)-AMC substrate. As to conditions: 5 μM substrate, 2 hours at room temperature. The method, then: Test 1: HDAC4 Assay Description
as §1

In test [4] the target is Human recombinant full length HDAC1 (Homo sapiens (Human), UniProt Q13547). The test is described as follows: HDAC1 assay (Test 2), acetyl-Gly-Ala-Lys(acetyl)-AMC substrate. As to conditions: 5 μM substrate, 2 hours at room temperature. The method, then:
as §1
Test 2: HDAC1 Assay Description
A similar assay procedure as described in Test 1 was used for HDAC1. Human recombinant full length HDAC1 expressed in a baculovirus expression system was purchased from BPS BioSciences (San Diego, Calif., U.S.A.). The substrate used in the […] assay was 5 μM of acetyl-Gly-Ala-Lys(acetyl)-AMC.

Sequence of Human recombinant full length HDAC6 (Q9UBN7 whole entry, the tested form may be a part): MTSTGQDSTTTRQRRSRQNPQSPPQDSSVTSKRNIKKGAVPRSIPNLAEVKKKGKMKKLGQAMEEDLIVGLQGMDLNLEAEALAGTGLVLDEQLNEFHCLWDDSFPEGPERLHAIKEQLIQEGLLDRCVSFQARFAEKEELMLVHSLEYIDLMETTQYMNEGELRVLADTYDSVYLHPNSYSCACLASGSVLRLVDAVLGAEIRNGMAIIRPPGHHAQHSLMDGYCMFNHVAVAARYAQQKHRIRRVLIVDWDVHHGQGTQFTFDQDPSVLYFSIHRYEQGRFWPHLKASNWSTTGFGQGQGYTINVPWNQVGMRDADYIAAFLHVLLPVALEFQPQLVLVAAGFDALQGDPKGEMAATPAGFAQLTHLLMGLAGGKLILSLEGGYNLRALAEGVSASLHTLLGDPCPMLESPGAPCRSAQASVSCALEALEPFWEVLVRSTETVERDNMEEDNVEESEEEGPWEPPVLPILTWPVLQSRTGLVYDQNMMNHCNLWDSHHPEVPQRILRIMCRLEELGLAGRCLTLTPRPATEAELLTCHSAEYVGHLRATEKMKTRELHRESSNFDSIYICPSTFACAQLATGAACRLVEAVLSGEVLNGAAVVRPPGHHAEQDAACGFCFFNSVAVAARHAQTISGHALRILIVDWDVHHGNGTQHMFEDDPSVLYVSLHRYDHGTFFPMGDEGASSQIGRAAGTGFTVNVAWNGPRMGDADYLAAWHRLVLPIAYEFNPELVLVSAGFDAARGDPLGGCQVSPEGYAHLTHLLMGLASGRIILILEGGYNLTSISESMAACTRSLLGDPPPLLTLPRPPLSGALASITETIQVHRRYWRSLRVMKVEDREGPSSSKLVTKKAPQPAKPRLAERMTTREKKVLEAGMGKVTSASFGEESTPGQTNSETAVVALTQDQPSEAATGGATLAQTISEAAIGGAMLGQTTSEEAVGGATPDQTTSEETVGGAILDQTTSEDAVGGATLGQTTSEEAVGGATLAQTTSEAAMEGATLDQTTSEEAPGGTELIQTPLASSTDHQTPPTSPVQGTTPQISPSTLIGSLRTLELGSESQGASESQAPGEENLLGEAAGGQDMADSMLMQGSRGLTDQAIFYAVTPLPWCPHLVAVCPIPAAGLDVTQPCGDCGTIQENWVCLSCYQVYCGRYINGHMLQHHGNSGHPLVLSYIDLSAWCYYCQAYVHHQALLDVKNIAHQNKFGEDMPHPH
T1 sequence (P56524 2-1084): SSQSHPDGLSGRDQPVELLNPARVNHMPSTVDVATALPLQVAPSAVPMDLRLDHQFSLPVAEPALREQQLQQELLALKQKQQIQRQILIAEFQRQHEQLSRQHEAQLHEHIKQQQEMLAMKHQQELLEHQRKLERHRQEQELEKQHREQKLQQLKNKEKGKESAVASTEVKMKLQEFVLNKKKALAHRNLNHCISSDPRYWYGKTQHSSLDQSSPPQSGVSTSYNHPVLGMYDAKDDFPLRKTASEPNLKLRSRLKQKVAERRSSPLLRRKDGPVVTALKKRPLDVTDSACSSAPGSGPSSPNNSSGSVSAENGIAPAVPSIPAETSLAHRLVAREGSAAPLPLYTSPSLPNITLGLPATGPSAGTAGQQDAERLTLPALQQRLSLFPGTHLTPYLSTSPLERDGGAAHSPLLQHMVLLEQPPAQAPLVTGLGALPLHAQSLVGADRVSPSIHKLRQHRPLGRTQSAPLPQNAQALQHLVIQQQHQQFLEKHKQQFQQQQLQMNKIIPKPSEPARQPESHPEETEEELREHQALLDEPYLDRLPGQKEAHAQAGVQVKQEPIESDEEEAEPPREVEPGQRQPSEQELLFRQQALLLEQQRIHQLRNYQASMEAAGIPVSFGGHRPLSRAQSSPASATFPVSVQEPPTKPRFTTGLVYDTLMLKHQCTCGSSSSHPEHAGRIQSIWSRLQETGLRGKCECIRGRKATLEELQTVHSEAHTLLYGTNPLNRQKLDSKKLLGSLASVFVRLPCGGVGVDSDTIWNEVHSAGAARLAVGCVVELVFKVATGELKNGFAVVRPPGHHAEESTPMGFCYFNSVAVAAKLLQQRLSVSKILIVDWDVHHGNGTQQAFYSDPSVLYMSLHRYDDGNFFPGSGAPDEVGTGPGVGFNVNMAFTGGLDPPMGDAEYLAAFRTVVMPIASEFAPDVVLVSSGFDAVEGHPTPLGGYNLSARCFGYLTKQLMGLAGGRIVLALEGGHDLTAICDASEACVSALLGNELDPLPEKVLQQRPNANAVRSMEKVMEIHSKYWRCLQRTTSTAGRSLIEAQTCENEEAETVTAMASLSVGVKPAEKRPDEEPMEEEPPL
Sequence of Human recombinant full length HDAC1 (Q13547 whole entry): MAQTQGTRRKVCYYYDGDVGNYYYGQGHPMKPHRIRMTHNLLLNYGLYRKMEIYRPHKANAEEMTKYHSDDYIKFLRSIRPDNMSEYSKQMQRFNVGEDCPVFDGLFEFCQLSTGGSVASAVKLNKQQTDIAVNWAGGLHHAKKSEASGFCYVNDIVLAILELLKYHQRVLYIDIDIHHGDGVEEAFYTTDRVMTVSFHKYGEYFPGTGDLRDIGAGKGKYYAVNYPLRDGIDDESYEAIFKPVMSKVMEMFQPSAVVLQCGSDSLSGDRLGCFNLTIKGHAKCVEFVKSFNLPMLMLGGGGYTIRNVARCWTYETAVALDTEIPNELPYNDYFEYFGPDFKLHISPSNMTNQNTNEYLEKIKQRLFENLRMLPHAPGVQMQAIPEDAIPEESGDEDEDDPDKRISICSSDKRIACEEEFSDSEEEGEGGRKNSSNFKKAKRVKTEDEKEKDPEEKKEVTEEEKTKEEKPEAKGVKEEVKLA

For the compound `O=C(NCc1ccncc1)c1cnc(-c2noc(C(F)(F)F)n2)nc1` [N-(pyridin-4-ylmethyl)-2-(5-(trifluoromethyl)-1,2,4-oxadiazol-3-yl)pyrimidine-5-carboxamide], the IC50 on Human recombinant HDAC4 [1] is above 30000 nM.

With `C[C@H](CN(C)C)NC(=O)c1cnc(-c2noc(C(F)(F)F)n2)nc1` [Example 26, (R)—N-(1-(dimethylamino)propan-2-yl)-2-(5-(trifluoromethyl)-1,2,4-oxadiazol-3-yl)pyrimidine-5-carboxamide], the IC50 in test [2] is above 10000 nM; on Human recombinant HDAC4 [3] it was 420 nM; in test [4] it was above 10000 nM.

As for `FC(F)(F)c1nc(-c2cnc(NCc3cccnc3)nc2)no1` [Example 10, N-(pyridin-3-ylmethyl)-5-(5-(trifluoromethyl)-1,2,4-oxadiazol-3-yl)pyrimidin-2-amine], the IC50 was determined as 1100 nM in test [2], 140 nM on Human recombinant HDAC4 [3] and 6600 nM in test [4].

Take `CCC(Nc1ncc(-c2noc(C(F)(F)F)n2)cn1)c1ccncc1` (centres unmarked) [Example 15, N-(1-(pyridin-4-yl)propyl)-5-(5-(trifluoromethyl)-1,2,4-oxadiazol-3-yl)pyrimidin-2-amine]: the half-maximal inhibitory concentration (IC50) in test [2] was determined as 210 nM; on Human recombinant HDAC4 [3] it was 20 nM; in test [4], 2600 nM.

For `C[C@@H](Nc1ccc(-c2noc(C(F)(F)F)n2)cn1)c1ccncc1` [Example 44], the IC50 in test [2] was determined as 1030 nM; at Human recombinant HDAC4 [3], 29 nM; in test [4], 2700 nM.

As for `C[C@H](CN(C)C)NC(=O)c1ncc(-c2noc(C(F)(F)F)n2)cc1Cl` [Example 25, (R)-3-chloro-N-(1-(dimethylamino)propan-2-yl)-5-(5-(trifluoromethyl)-1,2,4-oxadiazol-3-yl)picolinamide], the 50% inhibitory concentration (IC50) in test [2] is above 10000 nM; at Human recombinant HDAC4 [3] it was 3600 nM; in test [4] it was above 10000 nM.

Regarding `FC(F)(F)c1nc(-c2ccc(NCc3cccnc3)nc2)no1` [Example 30, N-(pyridin-3-ylmethyl)-5-(5-(trifluoromethyl)-1,2,4-oxadiazol-3-yl)pyridin-2-amine], the IC50 in test [2] is 1800 nM; on Human recombinant HDAC4 [3] it was 79 nM; in test [4], 6100 nM.

Take `Cc1ccc(CNc2ccc(-c3noc(C(F)(F)F)n3)cn2)cn1` [Example 32, N-((6-methylpyridin-3-yl)methyl)-5-(5-(trifluoromethyl)-1,2,4-oxadiazol-3-yl)pyridin-2-amine]: the IC50 in test [2] came out at 770 nM; on Human recombinant HDAC4 [3], 63 nM; in test [4] it was 2400 nM.

For `FC(F)(F)c1nc(-c2ccc(NCc3ccccc3)cn2)no1` [Example 27, N-benzyl-6-(5-(trifluoromethyl)-1,2,4-oxadiazol-3-yl)pyridin-3-amine], the IC50 is above 10000 nM in test [2], 2800 nM at Human recombinant HDAC4 [3] and 9600 nM in test [4].

Turning to `CN(Cc1ccnc(Cl)c1)c1ncc(-c2noc(C(F)(F)F)n2)cn1` [Example 5, N-((2-chloropyridin-4-yl)methyl)-N-methyl-5-(5-(trifluoromethyl)-1,2,4-oxadiazol-3-yl)pyrimidin-2-amine], the half-inhibitory concentration (IC50) stood at 2100 nM in test [2], 40 nM at Human recombinant HDAC4 [3] and 1700 nM in test [4].

For `C[C@H](CN(C)Cc1ccccc1)NC(=O)c1cnc(-c2noc(C(F)(F)F)n2)nc1` [Example 46], the IC50 in test [2] is above 10000 nM; at Human recombinant HDAC4 [3], 66 nM; in test [4], above 10000 nM.

As for `Cc1ccc(CNc2ncc(-c3noc(C(F)(F)F)n3)cc2Cl)cn1` [Example 38, 3-Chloro-N-((6-methylpyridin-3-yl)methyl)-5-(5-(trifluoromethyl)-1,2,4-oxadiazol-3-yl)pyridin-2-amine], the results for the IC50 (in test [2]; on Human recombinant HDAC4 [3]; in test [4]) were 1550 nM, 21 nM and 1400 nM, respectively.

Consider `C[C@@H](NC(=O)c1cnc(-c2noc(C(F)(F)F)n2)nc1)c1ccccc1` [(R)—N-(1-phenylethyl)-2-(5-(trifluoromethyl)-1,2,4-oxadiazol-3-yl)pyrimidine-5-carboxamide], for which the half-maximal inhibitory concentration (IC50) at Human recombinant HDAC4 [1] is above 30000 nM.

Take `CC(Nc1ccc(-c2noc(C(F)(F)F)n2)cn1)c1ccccc1` (centres unmarked) [Example 29, N-(1-phenylethyl)-5-(5-(trifluoromethyl)-1,2,4-oxadiazol-3-yl)pyridin-2-amine]: the values for the IC50 (in test [2]; at Human recombinant HDAC4 [3]; in test [4]) were 640 nM, 27 nM and 6200 nM, respectively.

The IC50 is the concentration at which inhibition is half-maximal.
